{
  "source": "patent US12521425B2",
  "about": "“Method of liver cancer treatment with safranal-based formulations” (priority 2019, dated 2026)",
  "system": "HepG2 cells",
  "experiment": "RNAseq differential gene expression and GO enrichment",
  "format": "cell-based, Homo sapiens",
  "settings": "for genes significantly differentially expressed: vs untreated",
  "procedure": "RNAseq libraries construction and sequencing. Total RNA was isolated from three biological replicates of safranal treatments and untreated sample using RNeasy Mini Kit (Qiagen) following the manufacturer's instructions. The RNAseq libraries were prepared using TruSeq RNA sample prep kit (Illumina, Inc.) following the manufacturer's instructions. Briefly, TruSeq RNA sample prep kit converts the poly-A containing mRNA in total RNA into a cDNA library using poly-T oligo-attached magnetic bead selection. Following mRNA purification, the RNA is chemically fragmented prior to reverse transcription and cDNA generation. The fragmentation step results in an RNAseq library that includes inserts that range in size from approximately 100-400 bp. The average insert size in an Illumina TruSeq RNA sequencing library is approximately 200 bp. The cDNA fragments then go through an end repair process, the addition of a single ‘A’ base to the 3′ end and then ligation of the adapters. Then, the products are purified and enriched with PCR to create the final double stranded cDNA libraries. Finally, libraries quality control and quantification were performed with a Bioanalyzer Chip DNA 1000 series II (Agilent) and sequenced directly using the high-throughput Illumina HiSeq sequencing system (Illumina, Inc.).\nAlignment and analysis of Illumina reads against the reference genome. The data was processed through the standard RNAseq analysis pipeline at NYUAD. Briefly, alignments were performed using tophat2 v2.1.0 with the parameters “-no-novel-junctions” and “-G” when specifying the genome file. Following the tophat2 alignment stage, read counts were generated using HTseq count, and the counts were analyzed using the DESeq2 R library. The reference genome and GFF annotation correspond to the Homo sapiens GRCh38.p2 genome version. Venn diagram summarizing the gene expression analysis was constructed using the web-based tool InteractiVenn. Heatmaps were produced by Excel.\nGene set enrichment analysis. Functional and gene set enrichment analysis of DEGs was performed using eXploring Genomic Relations (XGR) which is an open source tool for enrichment analysis with default parameters. The enrichment test is based on Hypergeometric distribution to identify the enriched gene ontology terms. The false positive rate was calculated by simulating a random set of genes of different sizes and found they were independent of the size of gene sets. Network analysis of over-representation GO terms was performed using the Biological Networks Gene Ontology tool (BiNGO) plug-in for Cytoscape. BiNGO retrieved the relevant GO Biological process annotation then tested for significance using the hypergeometric test and corrected multiple testing using Benjamini and Hochberg false discovery rate (FDR) correction ≤0.05.",
  "data": [
    {"smiles": "CC1=C(C=O)C(C)(C)CC=C1", "note": "[safranal]", "values": [
      {"measurement": "genes downregulated", "setting": "12 hours", "value": "3,769 genes"},
      {"measurement": "genes upregulated", "setting": "12 hours", "value": "2,812 genes"},
      {"measurement": "genes significantly differentially expressed", "setting": "12 hours", "value": "6,581 genes"},
      {"measurement": "genes downregulated", "setting": "24 hours", "value": "5,331 genes"},
      {"measurement": "genes upregulated", "setting": "24 hours", "value": "2,458 genes"},
      {"measurement": "genes significantly differentially expressed", "setting": "24 hours", "value": "7,789 genes"},
      {"measurement": "N, GO term Cell migration", "setting": "Downregulated 12 h", "value": 28},
      {"measurement": "N, GO term Growth", "setting": "Downregulated 12 h", "value": 27},
      {"measurement": "N, GO term Wound healing", "setting": "Downregulated 12 h", "value": 25},
      {"measurement": "N, GO term Cell adhesion", "setting": "Downregulated 24 h", "value": 149},
      {"measurement": "N, GO term Signal transduction", "setting": "Downregulated 24 h", "value": 327},
      {"measurement": "N, GO term Wound healing", "setting": "Downregulated 24 h", "value": 32},
      {"measurement": "N, GO term Cellular Response to DNA damage stimulus", "setting": "Upregulated 12 h", "value": 48},
      {"measurement": "N, GO term Proteasome-mediated ubiquitin-dependent protein catabolic process", "setting": "Upregulated 12 h", "value": 47},
      {"measurement": "N, GO term Response to unfolded protein", "setting": "Upregulated 12 h", "value": 14},
      {"measurement": "N, GO term Apoptotic mitochondrial changes", "setting": "Upregulated 24 h", "value": 6},
      {"measurement": "N, GO term Proteasome-mediated ubiquitin-dependent protein catabolic process", "setting": "Upregulated 24 h", "value": 50},
      {"measurement": "N, GO term Response to unfolded protein", "setting": "Upregulated 24 h", "value": 12}
    ]}
  ]
}
